Results from US9586978B2, “Anti-viral compounds” (AbbVie Inc., priority 2009, dated 2017).
Read-outs that look alike come from different tables or passages of the source.

Legend:
Assay type in all cases: cell-based, Hepatitis C virus
HCV genotype 1b replicon = HCV genotype 1b replicon assay; conditions: Hepatitis C virus
Text: (§1) [drawing 14] employs a biphenyl linker between the imidazole moieties. See WO2008021927(BMS). The EC50 values of BMS-790052 against different HCV genotypes were shown by Nettles et al., “BMS-790052 is a First-in-class Potent Hepatitis C Virus (HCV) NS5A Inhibitor for Patients with Chronic HCV Infection: Results from a Proof-of-concept Study”, 59th Annual Meeting of the American Association for the Study of Liver Diseases (Oct. 31-Nov. 1, 2008, San Francisco, Calif.; www.natap.org/2008/AASLD/AASLD_06.htm). […] See also Gao et al., NATURE 465:96-100 (2010). The compounds in Table 1 use different linkers between the imidazole moieties. Table 1 depicts the EC50 values of these compounds when tested using respective replicon assays in the presence of 5% (v/v) fetal bovine serum (FBS).
(§2) Table 2 compares compounds containing unsubstituted benzimidazole to those containing halo-substituted benzimidazole. Anti-viral activities were assessed using wild-type replicons (e.g., 1b WT or 1a WT) as well as replicons containing specific NS5A mutations (e.g., 1b L28T, 1b Y93H, 1a L31V, 1a Y93C, 1a M28V, or 1a Q30E) in the absence of FBS.
(§3) Table 3 compares compounds with different linkers between the benzimidazole moieties. Anti-viral activities were determined using 1a and 1b replicon assays. “HP” refers to human plasma. […] As compared to the phenyl linker

HCV genotype 1a replicon = HCV genotype 1a replicon assay; conditions: Hepatitis C virus
Text: as §1, §2, §3

HCV genotype 2a replicon = HCV genotype 2a replicon assay; conditions: Hepatitis C virus, absence of human plasma; Table 5; read-out: EC50 (nM, in the absence of HP) 2a
Text: as §1

HCV genotype 3a replicon = HCV genotype 3a replicon assay; conditions: Hepatitis C virus, read-out: EC50 (nM, in the absence of HP) 3a, absence of human plasma; Table 5
Text: as §1

HCV genotype 2b replicon = HCV genotype 2b replicon assay; conditions: Hepatitis C virus, absence of human plasma; Table 5; read-out: EC50 (nM, in the absence of HP) 2b
Text: as §1

HCV genotype 4a replicon = HCV genotype 4a replicon assay; conditions: Hepatitis C virus, absence of human plasma; Table 5; read-out: EC50 (nM, in the absence of HP) 4a
Text: as §1

[1] = 40% human plasma, Table 5, read-out: EC50 (nM, in the presence of 40% HP) 1b
[2] = 40% human plasma, Table 5, read-out: EC50 (nM, in the presence of 40% HP) 1a

SMILES	EC50 (HCV genotype 1b replicon; 5% FBS and 40% human plasma, Table 3, read-out: EC50 (nM, in the presence of 5% FBS and 40% HP) 1b)	EC50 (HCV genotype 1b replicon; 5% FBS, Table 3, read-out: EC50 (nM, in the presence of 5% FBS) 1b)	EC50 (HCV genotype 1a replicon; 5% FBS and 40% human plasma, Table 3, read-out: EC50 (nM, in the presence of 5% FBS and 40% HP) 1a)	EC50 (HCV genotype 1a replicon; 5% FBS, Table 3, read-out: EC50 (nM, in the presence of 5% FBS) 1a)	EC50 (HCV genotype 1b replicon; [1])	EC50 (HCV genotype 2a replicon)	EC50 (HCV genotype 3a replicon)	EC50 (HCV genotype 1a replicon; [2])	EC50 (HCV genotype 2b replicon)	EC50 (HCV genotype 4a replicon)	EC50 (HCV genotype 1b replicon; 5% FBS and 40% human plasma, Table 4, read-out: EC50 (nM, in the presence of 5% FBS and 40% HP) 1b)	EC50 (HCV genotype 1b replicon; 5% FBS, Table 4, read-out: EC50 (nM, in the presence of 5% FBS) 1b)	EC50 (HCV genotype 1a replicon; 5% FBS and 40% human plasma, Table 4, read-out: EC50 (nM, in the presence of 5% FBS and 40% HP) 1a)	EC50 (HCV genotype 1a replicon; 5% FBS, Table 4, read-out: EC50 (nM, in the presence of 5% FBS) 1a)
CCOC(=O)N[C@H](C(=O)N1CCC[C@H]1c1nc2cc(-c3ccc(-c4ccc5nc([C@@H]6CCCN6C(=O)[C@@H](NC(=O)OCC)C(C)C)[nH]c5c4)nc3)ccc2[nH]1)C(C)C	190 nM	2.9 nM	83 nM	6.8 nM										
COC(=O)N[C@H](C(=O)N1CCC[C@H]1C(=O)Nc1ccc([C@H]2CC[C@H](c3ccc(NC(=O)[C@@H]4CCCN4C(=O)[C@@H](NC(=O)OC)C(C)C)cc3)N2c2ccc(C(C)(C)C)cc2)cc1)C(C)C					0.1 nM	≤ 0.05 nM	≤ 0.05 nM	0.2 nM	≤ 0.05 nM	≤ 0.05 nM				
COC(=O)N[C@H](C(=O)N1CCC[C@H]1c1nc2cc([C@H]3CC[C@H](c4ccc5[nH]c([C@@H]6CCCN6C(=O)[C@@H](NC(=O)OC)C(C)C)nc5c4)N3c3ccc(C4CC4)cc3)ccc2[nH]1)C(C)C					0.3 nM	≤ 0.05 nM	≤ 0.05 nM	0.1 nM	≤ 0.05 nM	≤ 0.05 nM				
COC(=O)N[C@H](C(=O)N1CCC[C@H]1c1nc2cc([C@H]3CC[C@H](c4ccc5[nH]c([C@@H]6CCCN6C(=O)[C@@H](NC(=O)OC)C(C)C)nc5c4)N3c3ccc(C(C)(C)C)cc3)ccc2[nH]1)C(C)C					0.3 nM	0.2 nM	≤ 0.05 nM	0.1 nM	≤ 0.05 nM	≤ 0.05 nM				
COC(=O)N[C@H](C(=O)N1CCC[C@H]1c1nc2cc([C@H]3CC[C@H](c4ccc5[nH]c([C@@H]6CCCN6C(=O)[C@@H](NC(=O)OC)C(C)C)nc5c4)N3c3ccc(C4CC4)c(F)c3)ccc2[nH]1)C(C)C					0.1 nM	≤ 0.05 nM	≤ 0.05 nM	0.1 nM	≤ 0.05 nM	≤ 0.05 nM				
COC(=O)N[C@H](C(=O)N1CCC[C@H]1c1nc2cc([C@H]3CC[C@H](c4ccc5[nH]c([C@@H]6CCCN6C(=O)[C@@H](NC(=O)OC)C(C)C)nc5c4)N3c3cc(F)c(N4C[C@H]5CCCC[C@H]5C4)c(F)c3)ccc2[nH]1)C(C)C [Example 4.3, methyl{(2S)-1-[(2S)-2-{5-[(2R,5R)-1-{3,5-difluoro-4-[(3aR,7aS)-octahydro-2H-isoindol-2-yl]phenyl}-5-{2-[(2S)-1-{(2S)-2-[(methoxycarbonyl)amino]-3-methylbutanoyl}pyrrolidin-2-yl]-1H-benzimidazol-5-yl}pyrrolidin-2-yl]-1H-benzimidazol-2-yl}pyrrolidin-1-yl]-3-methyl-1-oxobutan-2-yl}carbamate]					0.2 nM			0.1 nM						
COC(=O)N[C@H](C(=O)N1CCC[C@H]1C(=O)Nc1ccc([C@@H]2CC[C@@H](c3ccc(NC(=O)[C@@H]4CCCN4C(=O)[C@@H](NC(=O)OC)C(C)C)cc3)N2)cc1)C(C)C											2400 nM	320 nM	1200 nM	290 nM
COC(=O)N[C@H](C(=O)N1CCC[C@H]1c1nc2cc([C@H]3CC[C@H](c4ccc5[nH]c([C@@H]6CCCN6C(=O)[C@@H](NC(=O)OC)C(C)C)nc5c4)N3c3ccc(N4CCCCC4)c(Cl)c3)ccc2[nH]1)C(C)C					0.2 nM	≤ 0.05 nM	≤ 0.05 nM	0.2 nM	≤ 0.05 nM	≤ 0.05 nM				
COC(=O)N[C@H](C(=O)N1CCC[C@H]1c1nc2cc([C@H]3CC[C@H](c4ccc5[nH]c([C@@H]6CCCN6C(=O)[C@@H](NC(=O)OC)C(C)C)nc5c4)N3c3cc(F)c(N4CCCCC4)c(F)c3)ccc2[nH]1)C(C)C					0.2 nM	≤ 0.05 nM	≤ 0.05 nM	0.1 nM	≤ 0.05 nM	≤ 0.05 nM				
